Results on one substance are retold here after patent US20090170808A1, “ORAL AGENT FOR IMPROVING AND PROTECTING THE FUNCTION OF JOINT COMPRISING HYALURONIC ACID-PHOSPHOLIPID COMPLEXES” (priority 2005, published 2009).

Marks after values point to notes of the source that are not given here.

Assay [1] deals with papain-induced OA model in rabbit. Put plainly: HA content in knee joint synovial fluid, papain-induced OA model in rabbit (HA RIA kit). The note with it: n = 6, x ± s. Format: in vivo. As for the experimental part:
(§1) 30 rabbits were randomly divided into five groups, i.e., normal control group; normal saline (NS) injection group; hyaluronic acid (HA) oral administration group; hyaluronic acid (HA) injection group; and hyaluronic acid-phospholipid complex (HA-PL, the complex of Preparation Example 2) oral administration group.
(§2) Using the papain-induced OA model in rabbit, the latter four groups of rabbits received injection of 0.1 ml of a papain solution (1.8 mg papain and 50 mg cysteine hydrochloride in 1 ml normal saline, sterile filtered through a 0.22 μm filter membrane) into the right knee articular cavity. A second injection was performed 3 days later.
Starting on Day 7 post-modeling, the rabbits were dosed. For administration by injection into joint cavity, a injection volume of 0.3 ml, and a hyaluronic acid concentration of 10 mg/ml were used, once every five days for a total of 3 injections during the test. For oral administration, the respective agent was given intragastrically every day, at a dosage 40 mg/kg body weight, calculated as hyaluronic acid, in a volume of 1 ml/100 g body weight, for 2 weeks.
(§3) After completion of the administration, synovial fluid was aspirated, and the rabbits were sacrificed. […] The total amount of GAG in the cartilage was determined by the azure A method, and the level of HA in the synovial fluid was determined using an HA RIA kit.

The test system is the same in assay [2]. Put plainly: GAG content in knee joint cartilage, papain-induced OA model in rabbit (azure A method). Type of assay: in vivo. The arrangement: unit not given here. The conditions noted are these: n = 6, x ± s. As for the experimental part: as §1, §2
Starting on Day 7 post-modeling, the rabbits were dosed. […] For oral administration, the respective agent was given intragastrically every day, at a dosage 40 mg/kg body weight, calculated as hyaluronic acid, in a volume of 1 ml/100 g body weight, for 2 weeks.
as §3
The content of GAG in samples from each group was expressed as the amount contained in every 1 mg wet weight of the cartilage ( x±s), and was analyzed by t-test for significance test.

The mark [3] stands for this setting: injection into joint cavity, 0.3 ml of 10 mg/ml, once every five days, 3 injections.
The mark [4] stands for this setting: oral (intragastric) daily, 40 mg/kg calculated as hyaluronic acid, 2 weeks.

As for hyaluronic acid [HA], the results for the “HA content in knee joint synovial fluid” value in assay [1] (setting [3]) and in assay [1] (setting [4]) were 4.64 ± 0.51^1) mg · ml^−1 and 4.65 ± 0.54^1) mg · ml^−1, respectively. Besides, the “GAG Content in knee joint cartilages” value in assay [2] (setting [3]) is reported as 29.9 ± 4.4^1),2) ng · ml^−1; in assay [2] (setting [4]), 23.3 ± 4.2.
